Data taken from ChEMBL document CHEMBL1143841, “Improved assessment of plasmodium vivax response to antimalarial drugs by a colorimetric double-site plasmodium lactate dehydrogenase antigen capture enzyme-linked immunosorbent assay” (Antimicrob Agents Chemother, 2007).
pIC50: −log10 of the molar value.

Legend:
Format in all cases: functional, organism-based
[1] = test system: Plasmodium vivax; assay: Growth inhibition of Plasmodium vivax isolate 2 assessed as parasite LDH synthesis after 48 hrs by double-site Plasmodium LDH antigen capture enzyme-linked immunosorbent assay
[2] = test system: Plasmodium vivax; assay: Growth inhibition of Plasmodium vivax isolate 1 assessed as parasite LDH synthesis after 48 hrs by double-site Plasmodium LDH antigen capture enzyme-linked immunosorbent assay
[3] = test system: Plasmodium vivax; assay: Growth inhibition of Plasmodium vivax isolate 4 assessed as parasite LDH synthesis after 48 hrs by double-site Plasmodium LDH antigen capture enzyme-linked immunosorbent assay
[4] = test system: Plasmodium vivax; assay: Growth inhibition of Plasmodium vivax isolate 3 assessed as parasite LDH synthesis after 48 hrs by double-site Plasmodium LDH antigen capture enzyme-linked immunosorbent assay

## CCN(CC)CCCC(C)Nc1ccnc2cc(Cl)ccc12 (centres undefined) [CHLOROQUINE]
[1]
  pIC50: 7.92
[2]
  pIC50: 8.26
[3]
  pIC50: 6.74
[4]
  pIC50: 7.05
